This note sets out measurements from ChEMBL document CHEMBL1133448, “Computational studies on HIV-1 protease inhibitors: influence of calculated inhibitor-enzyme binding affinities on the statistical quality of 3D-QSAR CoMFA models” (J Med Chem, 2000).

Structures are written as SMILES.

The test concerns the target Human immunodeficiency virus type 1 protease (Human immunodeficiency virus 1, UniProt Q72874). The test can be described thus: Inhibition of human immunodeficiency virus type 1 (HIV-1) protease enzyme.
Regarding `CC(C)(C)OC(=O)N[C@@H](Cc1ccccc1)[C@@H](O)CCC(=O)NC1c2ccccc2C[C@@H]1O` (stereo partly specified), the IC50 was 2950 nM.

On to `O=C(N[C@@H](Cc1ccccc1)[C@@H](O)C[C@@H](Cc1ccccc1)C(=O)NC1c2ccccc2C[C@@H]1O)OC1CCOC1` (stereo partly specified), for which the IC50 is 0.0603 nM. Against the preceding compound, the IC50 is about 49000-fold lower.

On to `CC(C)(C)OC(=O)N[C@@H](Cc1ccccc1)[C@@H](O)/C=C(/Cc1ccccc1)C(=O)NC1c2ccccc2C[C@@H]1O` (stereo partly specified), for which the midpoint of inhibition, the IC50, lay at 1.29 nM.

As to `CC(C)(C)OC(=O)N[C@@H](Cc1ccc(O)cc1)[C@@H](O)C1CCCC1C(=O)NCc1ccccc1` (stereo partly specified), the IC50 was 589 nM.

`CC(C)(C)OC(=O)NC(Cc1ccccc1)[C@@H](O)CC(CSc1ccccc1)C(=O)NC1c2ccccc2C[C@@H]1O` (stereo partly specified): 0.251 nM corresponded to half-maximal inhibition (IC50). Against the preceding compound, the IC50 is about 2300-fold lower.

`CC(C)(C)OC(=O)N[C@@H](Cc1ccccc1)[C@@H](O)C[C@@H](Cc1ccc(O)cc1)C(=O)NC1c2ccccc2C[C@@H]1O` (stereo partly specified) gave an IC50 of 0.158 nM. Compared with the last compound, the IC50 is about 1.6-fold lower.

Consider `CC(C)(C)OC(=O)N[C@@H](Cc1ccccc1)[C@@H](O)C[C@@H](Cc1ccccc1)C(=O)NC1C=CC[C@@H]1O` (stereo partly specified), for which 9.55 nM corresponded to half-maximal inhibition (IC50). This IC50 is about 60-fold higher than that of the compound before.

Take `CC(C)(C)OC(=O)N[C@@H](Cc1ccccc1)[C@@H](O)C[C@@H](Cc1ccccc1)C(=O)NC1c2ccccc2C(O)[C@@H]1O` (stereo partly specified): the IC50 was 0.1 nM. This IC50 lies about 96-fold lower than the previous one.

Compound `C=CC[C@H](C[C@H](O)[C@H](Cc1ccccc1)NC(=O)OC(C)(C)C)C(=O)NC1c2ccccc2C[C@@H]1O` (stereo partly specified) had an IC50 of 27.5 nM. This IC50 lies about 280-fold higher than the previous one.

Compound `COC(=O)C1Cc2ccccc2C1NC(=O)[C@H](Cc1ccccc1)C[C@H](O)[C@H](Cc1ccccc1)NC(=O)OC(C)(C)C` (stereo partly specified) showed an IC50 of 66.1 nM.

`Cc1ccc(C[C@H](C[C@H](O)[C@H](Cc2ccccc2)NC(=O)OC(C)(C)C)C(=O)NC2c3ccccc3C[C@@H]2O)cc1` (stereo partly specified): the IC50 was 0.288 nM.

`CC(C)(C)OC(=O)N[C@@H](Cc1ccccc1)[C@@H](O)C[C@@H](Cc1ccccc1)C(=O)NC1CCc2ccccc21` (stereo partly specified): the 50% inhibitory concentration (IC50) was 33.9 nM.

`CC(C)(C)OC(=O)N[C@@H](Cc1ccccc1)[C@@H](O)C[C@@H](Cc1ccccc1)C(=O)NC1c2ccccc2C[C@@H]1O` (stereo partly specified): the IC50 was 0.251 nM.

Regarding `CC(C)(C)OC(=O)N[C@@H](Cc1ccccc1)[C@@H](O)CC(=O)NC1c2ccccc2C[C@@H]1O` (stereo partly specified), half-maximal inhibition (IC50) required 562 nM.

`CC(C)(C)OC(=O)N[C@@H](Cc1ccccc1)[C@@H](O)C[C@@H](Cc1ccc(C(F)(F)F)cc1)C(=O)NC1c2ccccc2C[C@@H]1O` (stereo partly specified): it took 0.257 nM to reach half-maximal inhibition (IC50).

The compound `CC(C)(C)OC(=O)N[C@@H](Cc1ccccc1)[C@@H](O)C[C@@H](CCCc1ccccc1)C(=O)NC1c2ccccc2C(O)[C@@H]1O` (stereo partly specified) gave an IC50 of 0.191 nM. This IC50 and that of the compound before are within 1.5-fold of each other.

Compound `O=C(NC1c2ccccc2C[C@@H]1O)[C@H](Cc1ccccc1)CC(O)C[C@@H](Cc1ccccc1)C(=O)NC1c2ccccc2C[C@@H]1O` (stereo partly specified) showed an IC50 of 0.692 nM.

The compound `CC(C)(C)OC(=O)N[C@@H](Cc1ccccc1)[C@@H](O)C[C@@H](Cc1c(F)c(F)c(F)c(F)c1F)C(=O)NC1c2ccccc2C[C@@H]1O` (stereo partly specified) showed a half-inhibitory concentration (IC50) of 0.603 nM.

`CC(C)(C)OC(=O)N[C@@H](Cc1ccccc1)[C@@H](O)CC1(Cc2ccccc2)CCCN(C2c3ccccc3C[C@@H]2O)C1=O` (stereo partly specified) gave an IC50 of 1260 nM.

In turn, `CC(C)(C)OC(=O)NC(Cc1ccccc1)[C@@H](O)CC(Cc1ccc([N+](=O)[O-])cc1)C(=O)NC1c2ccccc2C[C@@H]1O` (stereo partly specified) showed a concentration for half-maximal inhibition (IC50) of 0.269 nM.

Consider `CC(C)(C)OC(=O)NC(Cc1ccccc1)[C@@H](O)CC(Cc1ccc(N)cc1)C(=O)NC1c2ccccc2C[C@@H]1O` (stereo partly specified), for which half-maximal inhibition (IC50) required 0.309 nM.

In turn, `CC(C)(C)OC(=O)N[C@@H](Cc1ccccc1)[C@@H](O)C[C@H](C(=O)NC1c2ccccc2C[C@@H]1O)C(=O)c1ccccc1` (stereo partly specified) had an IC50 of 5.37 nM.

`CC(C)(C)OC(=O)N[C@@H](Cc1ccccc1)[C@@H](O)C[C@@H](Cc1ccncc1)C(=O)NC1c2ccccc2C[C@@H]1O` (stereo partly specified) showed an IC50 of 0.525 nM.

With `CC(C)(C)OC(=O)N[C@@H](Cc1ccccc1)[C@@H](O)C[C@@H](C/C=C/c1ccccc1)C(=O)NC1c2ccccc2C[C@@H]1O` (stereo partly specified), the IC50 is 0.229 nM. This IC50 lies about 2.3-fold lower than the previous one.

For the compound `CC(C)(C)OC(=O)N[C@@H](Cc1ccccc1)[C@@H](O)C[C@@H](Cc1ccccc1)C(=O)NC1c2ccccc2OC[C@@H]1O` (stereo in doubt; 26), the IC50 is 0.178 nM.

`CC(C)(C)OC(=O)N[C@@H](Cc1ccccc1)[C@@H](O)C[C@@H](Cc1ccccc1)C(=O)NC1c2ccccc2OC[C@@H]1O` (stereo in doubt; 27) showed an IC50 of 40.7 nM. This IC50 is about 230-fold higher than that of the compound before.

Broadly, the IC50 is the concentration that gives 50% inhibition. Lower therefore signals greater potency.
